Measurements reported in publication PMC3724473 (Biosensors & bioelectronics, 2012).

Tests used:
[1] = biological target: T1, CotA / bilirubin oxidase (BOD) from Bacillus pumilus (Bacillus pumilus, UniProt A8FAG9); test: spectrophotometric oxidation at […] nm, Michaelis-Menten fit; type: biochemical; settings: optimal pH (assay pH 6.8), 37 °C, McIlvaine citrate-phosphate buffer
[2] = biological target: T1, CotA / bilirubin oxidase (BOD) from Bacillus pumilus; test: spectrophotometric at […] nm; type: biochemical; settings: optimal pH (assay pH 7.2, 50 mM sodium phosphate), 37 °C

Row | SMILES | Km [1] [µM] | Km [2] [µM]
1 | COc1cccc(OC)c1O [2,6-DMP, 2,6-dimethoxyphenol] | 822 | 
2 | C=CC1=C(C)/C(=C/c2[nH]c(Cc3[nH]c(/C=C4\NC(=O)C(C)=C4C=C)c(C)c3CCC(=O)O)c(CCC(=O)O)c2C)NC1=O [unconjugated bilirubin] |  | 22
